Results reported in patent US20250059180A1 (DONG WHA PHARM. CO., LTD., priority 2022, published 2025).
Read-outs that look alike come from different tables or passages of the source.

Tested on: Pfeiffer cells, lymphoma cells having EZH2 mutation (A677G)
Assay: Proliferation inhibition of cells of hematologic malignancies (CCK-8, 11 days)
Type: cell-based
Settings: 11 days culture, read-out: Cell proliferation inhibitory effect (IC50)
Procedure: The growth inhibitory activity of 1,3-benzodioxole derivative compounds represented by chemical formula I of the present invention against Pfeiffer cells, which are lymphoma cells having EZH2 mutation (A677G), was evaluated.
Pfeiffer was cultured using RPMI1640 containing 10% fetal bovine serum. The cells were inoculated into wells of a 96-well culture dish at 10,000 cells each, and cultured for 11 days after treating with the test material for each concentration. For 11 days, the test material was replaced every three to four days. After culturing, the cells were treated with a cell counting kit-8 (CCK-8) reagent for each well, absorbance was measured at 450 nm, and IC50 values for cell proliferation were obtained through curve fitting of non-linear regression in the GraphPad program (GraphPad Prism 5.0 software).

SMILES | IC50 | IC50 (Homo sapiens, Pfeiffer, 264 h)
CCN1CCC(C2(C)Oc3c(-c4ccc(N5CCOCC5)nc4)cc(C(=O)NCc4c(SC)cc(C)[nH]c4=O)c(C)c3O2)CC1 (single isomer, unassigned) [Compound 67, 2-(1-ethylpiperidin-4-yl)-2,4-dimethyl-N-((6-methyl-4-(methylthio)-2-oxo-1,2-dihydropyridin-3-yl)methyl)-7-(6-morpholinopyridin-3-yl)benzo[d][1,3]dioxole-5-carboxamide] | ≥ 100 nM | –
CSc1cc(C)[nH]c(=O)c1CNC(=O)c1cc(-c2ccc(N3C[C@@H](C)O[C@@H](C)C3)nc2)c2c(c1C)OC(C)(C1CCN(CCCC(F)(F)F)CC1)O2 (single isomer, unassigned) [Compound 58] | ≥ 100 nM | –
CSc1cc(C)[nH]c(=O)c1CNC(=O)c1cc(-c2ccc(Cl)s2)c2c(c1C)OC(C)([C@H]1CC[C@H](N(C)C)CC1)O2 (stereo partly drawn) [Compound 19, 7-(5-chlorothiophen-2-yl)-2-(trans-4-(dimethylamino)cyclohexyl)-2,4-dimethyl-N-((6-methyl-4-(methylthio)-2-oxo-1,2-dihydropyridin-3-yl)methyl)benzo[d][1,3]dioxole-5-carboxamide] | – | ≤ 10 nM
CSc1cc(C)[nH]c(=O)c1CNC(=O)c1cc(-c2cnc(N3CCC4(CC3)COC4)nc2)c2c(c1C)OC(C)([C@H]1CC[C@H](N(C)C)CC1)O2 (stereo partly drawn) [Compound 15, 7-(2-(2-oxa-7-azaspiro[3.5]nonan-7-yl)pyrimidin-5-yl)-2-(trans-4-(dimethylamino)cyclohexyl)-2,4-dimethyl-N-((6-methyl-4-(methylthio)-2-oxo-1,2-dihydropyridin-3-yl)methyl)benzo[d][1,3]dioxole-5-carboxamide] | – | ≤ 10 nM
CSc1cc(C)[nH]c(=O)c1CNC(=O)c1cc(-c2ccc(N3CCOCC3)nc2)c2c(c1C)OC(C)(C1CCN(CC(F)(F)F)CC1)O2 (centres unmarked) [Compound 63, 2,4-dimethyl-N-((6-methyl-4-(methylthio)-2-oxo-1,2-dihydropyridin-3-yl)methyl)-7-(6-morpholinopyridin-3-yl)-2-(1-(2,2,2-trifluoro)piperidin-4-yl)benzo[d][1,3]dioxole-5-carboxamide] | ≥ 100 nM | –
CSc1cc(C)[nH]c(=O)c1CNC(=O)c1cc(-c2ccsc2)c2c(c1C)OC(C)(C1CCC(N(C)C)CC1)O2 (centres unmarked) [Compound 42, 2-(4-(dimethylamino)cyclohexyl)-2,4-dimethyl-N-((6-methyl-4-(methylthio)-2-oxo-1,2-dihydropyridin-3-yl)methyl)-7-(thiophen-3-yl)benzo[d][1,3]dioxole-5-carboxamide] | – | ≤ 10 nM
CSc1cc(C)[nH]c(=O)c1CNC(=O)c1cc(-c2ccc(N3C[C@@H](C)O[C@@H](C)C3)nc2)c2c(c1C)OC(C)(C1CCN(CC(F)(F)F)CC1)O2 (single isomer, unassigned) [Compound 45] | ≥ 100 nM | –
CSc1cc(C)[nH]c(=O)c1CNC(=O)c1cc(-c2ccc(N3CCSCC3)nc2)c2c(c1C)OC(C)(C1CCN(CC(F)(F)F)CC1)O2 (centres unmarked) [Compound 34, 2,4-dimethyl-N-((6-methyl-4-(methylthio)-2-oxo-1,2-dihydropyridin-3-yl)methyl)-7-(6-thiomorpholinopyridin-3-yl)-2-(1-(2,2,2-trifluoroethyl)piperidin-4-yl)benzo[d][1,3]dioxole-5-carboxamide] | – | ≤ 10 nM
CSc1cc(C)[nH]c(=O)c1CNC(=O)c1cc(-c2cnc(N3CCOCC3)nc2)c2c(c1C)OC(C)(C1CCN(CC(F)(F)F)CC1)O2 (centres unmarked) [Compound 70, 2,4-dimethyl-N-((6-methyl-4-(methylthio)-2-oxo-1,2-dihydropyridin-3-yl)methyl)-7-(2-morpholinopyrimidin-5-yl)-2-(1-(2,2,2-trifluoro)piperidin-4-yl)benzo[d][1,3]dioxole-5-carboxamide] | ≥ 100 nM | –
COc1ccc(-c2cc(C(=O)NCc3c(SC)cc(C)[nH]c3=O)c(C)c3c2OC(C)(C2CCN(CC(F)(F)F)CC2)O3)cn1 (centres unmarked) [Compound 36, 7-(6-methoxypyridin-3-yl)-2,4-dimethyl-N-((6-methyl-4-(methylthio)-2-oxo-1,2-dihydropyridin-3-yl)methyl)-2-(1-(2,2,2-trifluoroethyl)piperidin-4-yl)benzo[d][1,3]dioxole-5-carboxamide] | – | ≤ 10 nM
COCCN(C)[C@H]1CC[C@H](C2(C)Oc3c(-c4cnc(N(C)C)nc4)cc(C(=O)NCc4c(SC)cc(C)[nH]c4=O)c(C)c3O2)CC1 (stereo partly drawn) [Compound 26, 7-(2-(dimethylamino)pyrimidin-5-yl)-2-(trans-4-((2-methoxyethyl)(methyl)amino)cyclohexyl)-2,4-dimethyl-N-((6-methyl-4-(methylthio)-2-oxo-1,2-dihydropyridin-3-yl)methyl)benzo[d][1,3]dioxole-5-carboxamide] | – | ≤ 10 nM
CSc1cc(C)[nH]c(=O)c1CNC(=O)c1cc(-c2ccc(N3C[C@@H](C)O[C@@H](C)C3)nc2)c2c(c1C)OC(C)(C1CCN(CCc3ccccc3)CC1)O2 (single isomer, unassigned) [Compound 55] | ≤ 10 nM | –

The remaining lines, values ahead:

IC50 | IC50 (Homo sapiens, Pfeiffer, 264 h) | SMILES
– | ≤ 10 nM | COC1CN([C@H]2CC[C@H](C3(C)Oc4c(-c5ccc(N6C[C@@H](C)O[C@@H](C)C6)nc5)cc(C(=O)NCc5c(SC)cc(C)[nH]c5=O)c(C)c4O3)CC2)C1 (stereo partly drawn) [Compound 106, 7-(6-((2S,6R)-2,6-dimethylmorpholino)pyridin-3-yl)-2-(trans-4-(3-methoxyazetidin-1-yl)cyclohexyl)-2,4-dimethyl-N-((6-methyl-4-(methylthio)-2-oxo-1,2-dihydropyridin-3-yl)methyl)benzo[d][1,3]dioxole-5-carboxamide]
– | ≤ 10 nM | CSc1cc(C)[nH]c(=O)c1CNC(=O)c1cc(-c2ccc(N3C[C@@H](C)O[C@@H](C)C3)nc2)c2c(c1C)OC(C)([C@H]1CC[C@H](N3CC(OCC(F)F)C3)CC1)O2 (stereo partly drawn) [Compound 103, 2-(trans-4-(3-(2,2-difluoroethoxy)azetidin-1-yl)cyclohexyl)-7-(6-((2S,6R)-2,6-dimethylmorpholino)pyridin-3-yl)-2,4-dimethyl-N-((6-methyl-4-(methylthio)-2-oxo-1,2-dihydropyridin-3-yl)methyl)benzo[d][1,3]dioxole-5-carboxamide]
≥ 100 nM | – | CCN1CCC(C2(C)Oc3c(-c4cnc(N(C)CC)nc4)cc(C(=O)NCc4c(SC)cc(C)[nH]c4=O)c(C)c3O2)CC1 (single isomer, unassigned) [Compound 84, 7-(2-(ethyl(methyl)amino)pyrimidin-5-yl)-2-(1-ethylpiperidin-4-yl)-2,4-dimethyl-N-((6-methyl-4-(methylthio)-2-oxo-1,2-dihydropyridin-3-yl)methyl)benzo[d][1,3]dioxole-5-carboxamide]
– | 10 to 100 nM | CSc1cc(C)[nH]c(=O)c1CNC(=O)c1cc(-c2ccc3c(c2)OCO3)c2c(c1C)OC(C)(C1CCN(CC(F)F)CC1)O2 (centres unmarked) [Compound 95, 2-(1-(2,2-difluoroethyl)piperidin-4-yl)-2,7-dimethyl-N-((6-methyl-4-(methylthio)-2-oxo-1,2-dihydropyridin-3-yl)methyl)-[4,5′-bibenzo[d][1,3]dioxol]-6-carboxamide]
– | ≤ 10 nM | CCN1CCN(c2ncc(-c3cc(C(=O)NCc4c(SC)cc(C)[nH]c4=O)c(C)c4c3OC(C)(C3CCN(CC(F)(F)F)CC3)O4)cn2)CC1 (centres unmarked) [Compound 75, 7-(2-(4-ethylpiperazin-1-yl)pyrimidin-5-yl)-2,4-dimethyl-N-((6-methyl-4-(methylthio)-2-oxo-1,2-dihydropyridin-3-yl)methyl)-2-(1-(2,2,2-trifluoroethyl)piperidin-4-yl)benzo[d][1,3]dioxole-5-carboxamide]
– | ≥ 100 nM | CCCCN(C)c1ccc(-c2cc(C(=O)NCc3c(SC)cc(C)[nH]c3=O)c(C)c3c2OC(C)(C2CCN(CC(F)(F)F)CC2)O3)cn1 (centres unmarked) [Compound 98, 7-(6-(butyl(methyl)amino)pyridin-3-yl)-2,4-dimethyl-N-((6-methyl-4-(methylthio)-2-oxo-1,2-dihydropyridin-3-yl)methyl)-2-(1-(2,2,2-trifluoroethyl)piperidin-4-yl)benzo[d][1,3]dioxole-5-carboxamide]
– | 10 to 100 nM | CSc1cc(C)[nH]c(=O)c1CNC(=O)c1cc(-c2ccc3c(c2)OCO3)c2c(c1C)OC(C)(C1CCN(CC(F)(F)F)CC1)O2 (centres unmarked) [Compound 94, 2,7-dimethyl-N-((6-methyl-4-(methylthio)-2-oxo-1,2-dihydropyridin-3-yl)methyl)-2-(1-(2,2,2-trifluoroethyl)piperidin-4-yl)-[4,5′-bibenzo[d][1,3]dioxol]-6-carboxamide]
≥ 100 nM | – | CSc1cc(C)[nH]c(=O)c1CNC(=O)c1cc(-c2ccc(N3C[C@@H](C)O[C@@H](C)C3)nc2)c2c(c1C)OC(C)([C@H]1CC[C@H](N(C)CC(F)(F)F)CC1)O2 (single isomer, unassigned) [Compound 108]
– | ≥ 100 nM | CSc1cc(C)[nH]c(=O)c1CNC(=O)c1cc(-c2ccc3c(c2)OC(F)(F)O3)c2c(c1C)OC(C)(C1CCN(CC(F)(F)F)CC1)O2 (centres unmarked) [Compound 93, 2′,2′-difluoro-2,7-dimethyl-N-((6-methyl-4-(methylthio)-2-oxo-1,2-dihydropyridin-3-yl)methyl)-2-(1-(2,2,2-trifluoroethyl)piperidin-4-yl)-[4,5′-bibenzo[d][1,3]dioxol]-6-carboxamide]
– | ≥ 100 nM | CCCCN(C)c1ncc(-c2cc(C(=O)NCc3c(SC)cc(C)[nH]c3=O)c(C)c3c2OC(C)(C2CCN(CC(F)(F)F)CC2)O3)cn1 (centres unmarked) [Compound 99]
– | ≤ 10 nM | CCN1CCC(C2(C)Oc3c(-c4ccc(N(C)CC)nc4)cc(C(=O)NCc4c(SC)cc(C)[nH]c4=O)c(C)c3O2)CC1 (single isomer, unassigned) [Compound 89, 7-(6-(ethyl(methyl)amino)pyridin-3-yl)-2-(1-ethylpiperidin-4-yl)-2,4-dimethyl-N-((6-methyl-4-(methylthio)-2-oxo-1,2-dihydropyridin-3-yl)methyl)benzo[d][1,3]dioxole-5-carboxamide]
